Values quoted from earlier work in article PMC3758109 (ChemistryOpen, 2012).

Details: humans, intravenous bolus injection

In the case of inulin, the “fraction cleared in fast phase” value is listed as 76%, the “fraction cleared in slow phase” value is listed as 24% and the “half-life of fast phase” value is listed as 10 min. For the same substance, the “half-life of slow phase” value was 86 min.
